From patent publication US20180360093A1, “NUTRITIONAL COMPOSITIONS AND INFANT FORMULAS TO PROMOTE MYELINATION IN THE BRAIN” (NESTEC S.A., priority 2015, published 2018)

System: brain myelination
Test: Cross-sectional correlation analysis (GLM) of formula nutrient composition versus brain myelination (MWF by mcDESPOT MRI)
Type: in vivo, human
Conditions: children up to 5 years fed different infant formulas during infancy; voxel-wise correlations, p<0.05 corrected
Experimental: MRI brain scans of infants and children between 0 and 5 years were acquired using a white matter imaging technique. This technique provides a quantitative measure, the Myelin Water Fraction (MWF), which is a surrogate marker of myelin content. When mapped as a function of time across early childhood, myelination trajectories can be generated.
Infant formula composition: six infant formulas fed to infants participating in study were analyzed for their composition/level of myelin-relevant nutrients.
Infants included in this study were drawn from a larger longitudinal study of normal brain and behavioral development: the Brown university Assessment of Myelination and Behavior Across Maturation (BAMBAM). To focus on neurotypical development, children with known potential risk factors for learning, neurologic, or psychiatric disorders were specifically excluded during recruitment and enrollment. Thus, children with in utero alcohol or illicit substance exposure, premature (<37 weeks gestation) or multiple birth, fetal ultrasound abnormalities, complicated pregnancy (e.g., preeclampsia), APGAR scores<8, NICU admission, neurological disorder (e.g., head injury, epilepsy), psychiatric or developmental disorders in the infant, parents or siblings (including maternal depression requiring medication) were excluded. Ongoing screenings, such as the MCAT for autism, or CBCL for behavioral problems, were further used to remove enrolled children with clinically concerning behaviors or overt medical conditions (such as autism spectrum disorders).
A combination of retrospective and prospective data were acquired from parents via detailed medical histories and parental interview on type of infant formula used, percentage of breastfeeding to formula feeding, and length of exclusive breastfeeding. This information was updated at each study visit, which occurred approximately every 6 months for children under 2 years, and yearly for older children. Using this information, children were categorized into one of 2 groups: #1. Exclusively formula-fed; and #2. Exclusively breastfed for at least 90 days (3 months). Children who were fed a combination of breastmilk and formula within 3 months were excluded from our analysis. Infants within the exclusively formula-fed group were further sub-divided based on parental reports of the main infant formula used throughout the first 3 months. Main formula was defined as that given 90% of the time or more (in the case were parents used an alternate brand during vacation, for example).
Using these criteria, 94 exclusively formula-fed infants and young children were selected into group #1. These included 13 children who received formula #2; 28 who received formula #5; 8 who received formula #3; 39 who received formula #4; 5 who received formula #1 and 1 who received formula #6. A sample of 52 exclusively breast-fed infants were also selected and matched to the over formula-fed group with regards to mean age, gestation duration, birth weight, male:female ratio, ethnicity ratio, maternal education, family size, and number of languages spoken in the home (in addition to English).
Each infant was scanned using the mcDESPOT (multicomponent Driven Equilibrium Single Pulse Observation of T1 and T2) white matter imaging technique Deoni et al. (Magn. Reson. Med. 2008, 60:1372-1387), which provides a quantitative measure of the myelin water fraction (MWF) at each imaging point throughout the brain. All infants were scanned during natural (i.e. non-sedated) sleep using acoustically-muffled mcDESPOT imaging protocols. Total imaging times ranged from 19 minutes for the youngest toddlers to 24 minutes for the older 4 year-old children.

Compound | nutritional drivers for myelination (final general linear model)
CCCCC/C=C\C/C=C\C/C=C\C/C=C\CCCC(=O)O [ARA, arachidonic acid] | identified drivers
C[N+](C)(C)CCO [Choline] | identified drivers
Vitamin B12 | identified drivers
phosphatidylcholine | identified drivers
phosphatidylinositol | identified drivers
sphingomyelin | identified drivers
